Assay results as given in patent publication US20050129782A1, “Use of inorganic nanoparticles to stabilize hydrogen peroxide solutions” (Alcon, Inc., priority 2003, published 2005).

Assays:
[1] = Stability of 3% hydrogen peroxide solutions with stabilizing agents, heated at 100° C. for 24 hours, KMnO4 titration (Example 1); format: physicochemical; conditions: 3% H2O2, phosphate buffer pH 6.5, 100° C. 24 hours vs 25° C.
Procedure: 3% hydrogen peroxide solutions containing three different stabilizing agents were formulated in phosphate buffer at pH 6.5. 10 ml samples were heated in HCl-cleaned test tubes at 100° C. for 24 hours to simulate a two year shelf life. Then a 200 microliter aliquot was added to 40 ml of a 2.75% H2SO4 solution and titrated with 0.01N KMnO4.

[2] = Stability of 100 ppm H2O2 at various pHs, heated at 100° C. for 24 hours, KMnO4 titration (Example 3); format: physicochemical; conditions: 60 ppm Dequest 2060 (control); 100 ppm H2O2, pH 6.5; 100° C. 24 hours vs RT
Procedure: The effectiveness of 50 ppm Laponite® XLG to stabilize 100 ppm H2O2 at various pH levels was evaluated.
50 ppm Laponite® XLG was formulated in a phosphate buffer (0.8655% NaCl, 0.0622% sodium phosphate dibasic, 0.0072% sodium phosphate monobasic monohydrate), along with 100 ppm hydrogen peroxide (from a 30% unstabilized solution). 100 mL samples were then adjusted to pH levels of 6.5, 7.0 and 7.5, respectively. 10 mL of each sample was then placed in a test tube, sealed with a screw cap, and heated to 100° C. for 24 hours. After heating, 5 mL of each sample was titrated with 0.002% KMnO4 and compared to the unheated sample to obtain % stability. 60 ppm of Dequest® 2060 at pH 6.5 was used as a control.

% Stability of H2O2 ([1]; stabilizer 180 ppm) [%] | % stability [2] [%] | SMILES | % Stability of H2O2 ([1]; stabilizer 500 ppm) [%]
– | – | O=C(O)CN(CCN(CC(=O)O)CC(=O)O)CC(=O)O [EDTA] | 24.8
98.2 | 92.9 | O=P(O)(O)CN(CCN(CP(=O)(O)O)CP(=O)(O)O)CCN(CP(=O)(O)O)CP(=O)(O)O [Dequest ® 2060] | –
